# Patent publication US20260226041A1 (ARIGENX THERAPEUTICS CO., LTD., priority 2023, published 2026)
# Tests used:
# rat AHR = molecular target: T1, rat AHR (Rattus norvegicus, UniProt P41738); assay: Rat AHR agonist luciferase assay (6x XRE Nano-luc reporter in H-4-II-E cells); assay type: cell-based; conditions: AHR activation, rat hepatoma H-4-II-E reporter cells, incubated 4 to 24 hours; read-out: H4IIE EC50
# T1 construct: The reporter gene was introduced into a genome of rat hepatoma H-4-II-E cells via lentiviral infection; endogenous in cells; host or cells: H-4-II-E (rat hepatoma) with a lentivirally integrated 6x XRE Nano-luc reporter
# T1 sequence (P41738 10-853): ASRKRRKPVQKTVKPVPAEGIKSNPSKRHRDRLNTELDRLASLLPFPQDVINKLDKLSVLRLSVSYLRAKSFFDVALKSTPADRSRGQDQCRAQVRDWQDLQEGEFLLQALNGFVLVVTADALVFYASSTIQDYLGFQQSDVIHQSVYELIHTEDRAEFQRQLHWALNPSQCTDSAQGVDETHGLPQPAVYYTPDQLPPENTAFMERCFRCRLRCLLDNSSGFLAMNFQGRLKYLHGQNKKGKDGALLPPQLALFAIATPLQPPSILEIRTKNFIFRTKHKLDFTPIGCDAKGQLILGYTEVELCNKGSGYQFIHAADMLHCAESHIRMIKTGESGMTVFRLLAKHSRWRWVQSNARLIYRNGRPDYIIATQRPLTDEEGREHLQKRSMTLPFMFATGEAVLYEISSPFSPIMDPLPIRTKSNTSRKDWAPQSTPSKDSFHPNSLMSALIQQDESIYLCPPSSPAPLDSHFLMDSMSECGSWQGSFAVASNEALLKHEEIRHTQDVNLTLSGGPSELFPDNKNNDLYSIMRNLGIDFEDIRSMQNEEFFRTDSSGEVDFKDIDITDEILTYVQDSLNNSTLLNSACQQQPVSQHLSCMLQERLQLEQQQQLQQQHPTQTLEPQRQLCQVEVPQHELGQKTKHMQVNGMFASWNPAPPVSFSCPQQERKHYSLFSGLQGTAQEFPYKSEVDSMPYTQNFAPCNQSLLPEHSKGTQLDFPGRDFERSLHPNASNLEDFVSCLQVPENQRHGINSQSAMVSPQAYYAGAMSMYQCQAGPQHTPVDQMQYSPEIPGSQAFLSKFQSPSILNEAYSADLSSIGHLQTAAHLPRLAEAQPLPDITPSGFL
# From the text: A lentivirus containing the reporter gene was generated by co-transfecting the transfer plasmid with packaging plasmids into 293T cells using conventional transfection methods in the art, followed by purification. The reporter gene was introduced into a genome of rat hepatoma H-4-II-E cells via lentiviral infection, and cells stably expressing the reporter gene were selected with puromycin for the rat AHR agonist luciferase assay.
# mouse AHR = mouse AHR (Mus musculus, UniProt P30561); assay: Mouse AHR agonist luciferase assay (6x XRE Nano-luc reporter in Hepa1-6 cells);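 further: stable Hepa1-6 reporter line, 4–24 h exposure, 11-point serial dilution, Nano-Glo luminescence as fold over medium-only baseline, EC50 from four-parameter fit of activation fold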
# mouse AHR, sequence (P30561 10-805 limits assumed): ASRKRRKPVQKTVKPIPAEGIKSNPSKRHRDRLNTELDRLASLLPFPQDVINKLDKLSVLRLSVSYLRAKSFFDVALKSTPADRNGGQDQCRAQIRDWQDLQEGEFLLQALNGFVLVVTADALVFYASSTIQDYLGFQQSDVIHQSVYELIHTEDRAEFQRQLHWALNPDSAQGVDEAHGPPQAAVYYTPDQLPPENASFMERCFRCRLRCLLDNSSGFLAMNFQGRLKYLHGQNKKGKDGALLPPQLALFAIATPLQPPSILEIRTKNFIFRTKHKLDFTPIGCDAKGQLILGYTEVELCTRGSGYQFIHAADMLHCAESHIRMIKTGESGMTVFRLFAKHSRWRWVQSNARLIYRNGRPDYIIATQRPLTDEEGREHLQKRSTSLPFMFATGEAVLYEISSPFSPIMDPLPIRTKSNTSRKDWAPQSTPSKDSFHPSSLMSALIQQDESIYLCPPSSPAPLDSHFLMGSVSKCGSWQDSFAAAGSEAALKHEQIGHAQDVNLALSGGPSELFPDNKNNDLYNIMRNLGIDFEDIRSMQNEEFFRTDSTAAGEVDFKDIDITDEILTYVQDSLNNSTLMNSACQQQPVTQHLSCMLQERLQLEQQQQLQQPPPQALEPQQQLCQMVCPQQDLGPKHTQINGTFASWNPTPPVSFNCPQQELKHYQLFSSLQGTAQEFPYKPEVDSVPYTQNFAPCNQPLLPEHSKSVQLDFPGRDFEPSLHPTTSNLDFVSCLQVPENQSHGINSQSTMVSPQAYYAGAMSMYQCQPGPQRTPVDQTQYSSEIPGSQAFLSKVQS
# mouse AHR, sequence (P53762 whole entry partner): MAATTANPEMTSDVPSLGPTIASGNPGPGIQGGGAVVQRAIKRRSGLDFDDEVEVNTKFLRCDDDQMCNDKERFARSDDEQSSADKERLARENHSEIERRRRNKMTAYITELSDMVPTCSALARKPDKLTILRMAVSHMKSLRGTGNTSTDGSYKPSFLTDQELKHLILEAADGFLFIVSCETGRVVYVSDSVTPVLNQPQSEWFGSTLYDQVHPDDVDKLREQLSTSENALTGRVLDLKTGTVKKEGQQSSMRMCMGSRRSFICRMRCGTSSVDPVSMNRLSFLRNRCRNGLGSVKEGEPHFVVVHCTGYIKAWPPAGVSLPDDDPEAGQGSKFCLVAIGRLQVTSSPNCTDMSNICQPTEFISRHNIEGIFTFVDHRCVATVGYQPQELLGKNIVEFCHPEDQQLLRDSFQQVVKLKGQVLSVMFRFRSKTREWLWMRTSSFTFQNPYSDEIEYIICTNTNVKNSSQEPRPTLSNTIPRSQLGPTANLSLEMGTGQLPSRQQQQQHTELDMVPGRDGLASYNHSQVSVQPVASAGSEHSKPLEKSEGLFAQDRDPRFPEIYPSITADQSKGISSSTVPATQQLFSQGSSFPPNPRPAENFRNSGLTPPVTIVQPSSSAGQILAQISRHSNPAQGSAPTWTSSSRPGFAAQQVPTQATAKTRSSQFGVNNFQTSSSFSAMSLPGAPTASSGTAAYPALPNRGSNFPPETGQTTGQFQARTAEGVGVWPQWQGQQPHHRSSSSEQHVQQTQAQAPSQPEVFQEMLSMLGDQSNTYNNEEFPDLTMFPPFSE
# Experimental: The reporter gene plasmid was transfected into mouse hepatoma Hepa1-6 cells by a conventional liposome transfection method in the art, and stably expressing cells were selected by puromycin for the mouse AHR agonist luciferase assay.
# On day one, the stably expressing reporter gene Hepa1-6 cell line was counted and seeded into a white opaque 96-well plate at a density of 1×10^4 cells per well −8×10^4 cells per well using 100 μL of phenol red-free Dulbecco's Modified Eagle Medium (DMEM) (DMEM without phenol red, 10% fetal bovine serum). The cells were cultured in an incubator maintained at 37° C. with 5% CO2 for 24 hours.
# Test compounds were prepared as 10 mM stock solutions in DMSO and stored at 4° C. protected from light. Before treatment, the compound stock solutions, positive control compounds (e.g., dioxin, ITE, or kynurenine), and a negative control compound (DMSO) were subjected to preliminary dilution (determined based on pre-experiments) with complete medium without tryptophan and phenol red, followed by 3- to 20-fold serial dilutions to 11 concentration points to obtain 10× dilution solutions. When treating the cells, 10 μL of medium was first aspirated from the 96-well plate containing the seeded cells, and then 10 μL of the serially diluted 10× dilution solution was added. Each compound was tested in duplicate, and each duplicate experiment included a well with a concentration of 0 (i.e., containing only medium) to determine the baseline. The reporter cells were returned to the incubator and incubated for 4 to 24 hours after treatment.
# After treatment, 100 μL/well of Nano-Glo Luciferase Assay Reagent was added to the 96-well plate, and the RLU of each well was measured. The RLU values for the wells with the concentration of 0 on the 96-well plates were averaged to calculate the baseline Ave RLU^Vehicle The activity of AHR induced by the test compounds at different concentrations was calculated according to Formula (1) based on the ratio of RLU^Test Cmpd from the experimental groups to the baseline Ave RLU^Vehicle, to determine the activation fold.
# The activation fold and the corresponding compound concentration were fitted using GraphPad Prism 9 with [Agonist] vs. response—variable slope (four parameters) to determine the EC50 of the compound for AHR activation.
# human AHR = molecular target: T2, human AHR (Homo sapiens, UniProt P35869); assay: Human AHR agonist luciferase assay (CYP1A1 promoter Nano-luc reporter in HepG2 cells);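 further: stably transfected HepG2 clone, DRE-containing 1200 bp promoter region driving Nano-luc, treated 4 to 24 h with 11-point dilutions in tryptophan-free medium, medium-only wells as baseline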
# T2 sequence (P35869 11-848): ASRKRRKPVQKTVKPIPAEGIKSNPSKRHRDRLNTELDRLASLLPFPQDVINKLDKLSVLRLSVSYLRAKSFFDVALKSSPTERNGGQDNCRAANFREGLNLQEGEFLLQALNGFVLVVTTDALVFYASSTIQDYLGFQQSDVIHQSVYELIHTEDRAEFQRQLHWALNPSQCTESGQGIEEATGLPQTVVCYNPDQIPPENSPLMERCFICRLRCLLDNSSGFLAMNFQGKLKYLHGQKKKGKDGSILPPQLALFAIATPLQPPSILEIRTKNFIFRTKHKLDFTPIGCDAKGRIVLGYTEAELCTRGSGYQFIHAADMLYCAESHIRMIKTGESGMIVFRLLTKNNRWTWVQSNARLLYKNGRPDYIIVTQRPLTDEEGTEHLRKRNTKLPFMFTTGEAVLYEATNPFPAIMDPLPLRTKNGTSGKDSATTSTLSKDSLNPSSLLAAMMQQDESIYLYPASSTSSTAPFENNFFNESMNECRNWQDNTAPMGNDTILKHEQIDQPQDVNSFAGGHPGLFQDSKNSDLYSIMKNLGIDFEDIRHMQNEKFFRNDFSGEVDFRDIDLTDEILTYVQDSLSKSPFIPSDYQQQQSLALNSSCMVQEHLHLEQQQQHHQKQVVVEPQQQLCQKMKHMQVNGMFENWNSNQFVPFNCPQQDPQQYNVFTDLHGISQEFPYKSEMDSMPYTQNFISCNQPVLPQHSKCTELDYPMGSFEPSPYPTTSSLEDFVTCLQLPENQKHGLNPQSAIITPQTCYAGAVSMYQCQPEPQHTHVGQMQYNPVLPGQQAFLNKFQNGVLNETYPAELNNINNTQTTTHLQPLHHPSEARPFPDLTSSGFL
# Experimental: To detect AHR activation, a reporter gene plasmid was constructed by placing the gene sequence from −1200 bp to 0 bp upstream of CYP1A1 in front of a Nano-luc luciferase reporter gene according to conventional construction methods of reporter gene plasmids in the art. The reporter gene plasmid was transfected into human hepatoma HepG2 cells by a conventional liposome transfection method in the art, and stably expressing cells were selected by puromycin. The selected cells were diluted to a concentration of 5 cells/mL and seeded into a 96-well plate at 100 μL/well, and single clones were obtained after growth. A single clone with normal morphology, normal growth, and the highest induction signal was selected for the human AHR agonist luciferase assay.
# On day one, the HepG2 monoclonal cell line stably expressing reporter gene was counted and seeded into a white opaque 96-well plate at a density of 1×10^4 cells per well −8×10^4 cells per well using 100 μL of complete medium without tryptophan and phenol red (minimal essential medium (MEM) without tryptophan and phenol red, 10% (v/v) fetal bovine serum, 1× non-essential amino acids, 1× sodium pyruvate, and 1× GlutaMax). The cells were cultured in an incubator maintained at 37° C. with 5% (v/v) CO2 for 24 hours.
# Test compounds were prepared as 10 mmol/L stock solutions in dimethyl sulfoxide (DMSO) and stored at 4° C. protected from light. Before treatment, the compound stock solutions, positive control compounds (e.g., dioxin, 2-(1H-indole-3-carbonyl)thiazole-4-carboxylic acid methyl ester (ITE), or kynurenine), and a negative control compound (DMSO) were subjected to preliminary dilution (determined based on pre-experiments) with the complete medium without tryptophan and phenol red, followed by 3- to 20-fold serial dilutions to 11 concentration points to obtain 2× dilution solutions. When treating the cells, 50 μL of medium was first aspirated from the 96-well plate containing the seeded cells, and then 50 μL of the serially diluted 2× dilution solution was added. Each compound was tested in duplicate, and each duplicate experiment included a well with a concentration of 0 (i.e., containing only the medium) to determine the baseline. The reporter cells were returned to the incubator and incubated for 4 to 24 hours after treatment.
# After treatment, 100 μL/well of Nano-Glo Luciferase Assay Reagent was added to the 96-well plate, and the relative light unit (RLU) of each well was measured. The RLU values for the wells with the concentration of 0 on the 96-well plates were averaged to calculate the baseline Ave RLU^Vehicle. The activity of AHR induced by the test compounds at different concentrations was calculated according to Formula (1) based on the ratio of RLU^Test Cmpd from the experimental groups to the baseline Ave RLU^Vehicle, to determine the activation fold.
# The activation fold and the corresponding compound concentration were fitted using GraphPad Prism 9 with [Agonist] vs. response—variable slope (four parameters) to calculate the EC50 of the compound for AHR activation.
smiles,measurement,setting,value
"COC(=O)c1csc(C(=O)c2c[nH]c3ccccc23)n1 [ITE, 2-(1H-indole-3-carbonyl)thiazole-4-carboxylic acid methyl ester, reference compound]",EC50,rat AHR,10 to 2000 nM
same,EC50,mouse AHR,100 to 2000 nM
same,EC50,human AHR,< 500 nM
COc1ccc2[nH]cc(C(=O)c3nc(C4CCN(C)C4=O)cs3)c2c1 (stereo not drawn) [Compound 7-5],EC50,rat AHR,2000 to 100000 nM
same,EC50,mouse AHR,< 100 nM
same,EC50,human AHR,< 500 nM
O=C(c1nc(C2CCOC2=O)cs1)c1c[nH]c2ccc(F)cc12 (stereo not drawn) [Compound 1-4],EC50,rat AHR,≤ 10 nM
same,EC50,mouse AHR,< 100 nM
same,EC50,human AHR,< 500 nM
O=C(c1nc(C2(Cl)CCOC2=O)cs1)c1c[nH]c2cc(F)ccc12 (stereo not drawn) [Compound 4-2],EC50,rat AHR,≤ 10 nM
same,EC50,mouse AHR,< 100 nM
same,EC50,human AHR,< 500 nM
O=C(c1nc(C2(O)CCOC2=O)cs1)c1c[nH]c2ccccc12 (stereo not drawn) [Compound 2],EC50,rat AHR,≤ 10 nM
same,EC50,mouse AHR,< 100 nM
same,EC50,human AHR,< 500 nM
O=C(c1nc(C2CCOC2=O)cs1)c1c[nH]c2cc(F)ccc12 (stereo not drawn) [Compound 1-2],EC50,rat AHR,≤ 10 nM
same,EC50,mouse AHR,< 100 nM
same,EC50,human AHR,< 500 nM
"O=C(c1nc(C2CCOC2=O)cs1)c1c[nH]c2ccccc12 (stereo not drawn) [Compound 1, 3-[2-(1H-indole-3-carbonyl)-1,3-thiazol-4-yl]tetrahydrofuran-2-one]",EC50,rat AHR,≤ 10 nM
same,EC50,mouse AHR,< 100 nM
same,EC50,human AHR,< 500 nM
O=C(c1nc(C2CCOC2=O)cs1)c1c[nH]c2cc3c(cc12)OCO3 (stereo not drawn) [Compound 1-6],EC50,rat AHR,≤ 10 nM
same,EC50,mouse AHR,< 100 nM
same,EC50,human AHR,< 500 nM
